Measured values reported in article PMC3039446 (Cancer research, 2010).
“Also recorded” adds a separate entry of the source. Read-outs that look alike come from different tables or passages of the source. Marks after values point to notes of the source that are not given here.

Columns and labels:
[1] = system: PPC-1; assay: SRB cytotoxicity assay, PPC-1; format: cell-based, human
[2] = system: OVCAR-8; assay: SRB cytotoxicity assay, OVCAR-8; format: cell-based, human
[3] = Pharmacokinetic study in ICR mice, i.v.; conditions: 15 mg/kg i.v.
[4] = system: A375 melanoma xenograft; conditions: 34 days; for % T/C: A375 melanoma xenograft; for Tumor volume at end of treatment: A375 xenograft, control 2183 ± 279
[5] = system: B16-F1; conditions: read-out: IC50 ± SEM; B16-F1 melanoma, SRB; previously reported ref 11; cited from earlier work
[6] = system: Bovine brain tubulin; assay: In vitro microtubule; format: biochemical; conditions: 10 μM compound, absorbance 340 nm, 15 min
[7] = system: ICR mice; assay: Acute toxicity study in ICR mice; format: in vivo; conditions: 4 consecutive days of intraperitoneal dosing
[8] = system: A375; conditions: read-out: IC50 ± SEM; A375 melanoma, SRB; previously reported ref 11; cited from earlier work
[9] = system: PC-3; conditions: read-out: IC50 ± SEM; PC-3 prostate, SRB; previously reported ref 11; cited from earlier work
[10] = system: PC-3 prostate tumor xenograft; conditions: for %T/C values (range): both PC-3 and A375 xenograft models, doses 5 to 20 mg/kg
[11] = system: LNCaP; conditions: read-out: IC50 ± SEM; LNCaP prostate, SRB; previously reported ref 11; cited from earlier work
[12] = rat, in vivo, iv, 2.5 mg/kg
[13] = Pharmacokinetic study in Sprague-Dawley rats, i.v.; conditions: 2.5 mg/kg i.v.
[14] = system: PC-3 cells; format: cell-based, human
[15] = system: ICR mice; conditions: mouse, 15 mg/kg
[16] = system: Du-145; conditions: read-out: IC50 ± SEM; Du-145 prostate, SRB; previously reported ref 11; cited from earlier work
[17] = system: ICR mice; assay: Rotarod test
[18] = system: PPC-1; conditions: read-out: IC50 ± SEM; PPC-1 prostate, SRB; previously reported ref 11; cited from earlier work
[19] = cited from earlier work
[20] = system: tubulin; assay: MS competitive binding assay on tubulin binding sites
[21] = mice, 15 mg/kg i.v.; ref C. M. Li et al, in press; cited from earlier work
[22] = system: A375; assay: SRB cytotoxicity assay, A375; format: cell-based, human
[23] = system: PC-3; assay: SRB cytotoxicity assay, PC-3; format: cell-based, human
[24] = system: B16-F1; assay: SRB cytotoxicity assay, B16-F1; format: cell-based
[25] = system: Du-145; assay: SRB cytotoxicity assay, Du-145; format: cell-based, human
[26] = system: PC-3 and A375 cells; assay: Apoptosis detection by ELISA; format: cell-based, human; conditions: 24 h treatment
[27] = system: prostate cancer and melanoma cell lines; assay: SRB antiproliferative assay, ranges over the cell line panel; format: cell-based, human; conditions: read-out: IC50 (range over cell lines), Table 1 cell lines
[28] = system: LNCaP; assay: SRB cytotoxicity assay, LNCaP; format: cell-based, human; conditions: read-out: IC50 ± SEM
[29] = system: NCI/ADR-RES; assay: SRB cytotoxicity assay, NCI/ADR-RES; format: cell-based, human
[30] = Homo sapiens, PPC-1, read-out: IC50 ± SEM
[31] = read-out: IC50 ± SEM, OVCAR-8 ovarian (parent), SRB, n = 3
[32] = PC-3 xenograft, 5 mg/kg, start 150 mm^3, control 680 ± 198
[33] = PC-3 xenograft, 15 mg/kg, start 150 mm^3, control 680 ± 198

SMILES: CC(=O)O[C@H]1C(=O)[C@@]2(C)[C@H]([C@H](OC(=O)c3ccccc3)[C@]3(O)C[C@H](OC(=O)[C@H](O)[C@@H](NC(=O)c4ccccc4)c4ccccc4)C(C)=C1C3(C)C)[C@]1(OC(C)=O)CO[C@@H]1C[C@@H]2O [Paclitaxel]
- IC50 [1, 30]: 2.3 ± 0.8 nM
- IC50 ([2]; Homo sapiens, OVCAR-8, read-out: IC50 ± SEM): 4.7 ± 0.1 nM

SMILES: COc1cc(C(=O)c2csc(-c3ccc(F)cc3)n2)cc(OC)c1OC [SMART-F]
- t1/2 [3]: 2.35 h
- % T/C ([4]; 15 mg/kg i.p. daily, 15 mg/kg): 29%
- Tumor volume at end of treatment ([4]; 15 mg/kg): 722 ± 135 mm^3
- IC50 [5]: 43 ± 21 nM
- Inhibition of tubulin polymerization [6]: 90%
- Doses that did not cause greater than 10% loss of body weight [7]: ≤ 15 mg/kg
- IC50 [8]: 33 ± 14 nM
- IC50 [2, 31]: 34 ± 3 nM
- IC50 [9]: 13 ± 1 nM
- Tumor volume by day 21 [10, 32]: 269 ± 177 mm^3
- Tumor volume by day 21 [10, 33]: 292 ± 103 mm^3
- %T/C values (range) [10]: 4–30%
- IC50 [11]: 6 ± 1 nM
- AUC [12]: 1600 ng·h/mL
- CL [12]: 11 mL/min/kg
- Vss [12]: 34 L/kg
- t1/2 [13]: 40.17 h

SMILES: COc1cc(C(=O)c2csc(-c3ccccc3)n2)cc(OC)c1OC [SMART-H]
- IC50 ([14]; PC-3 cells from ATCC (in vitro control)): 29.1 ± 1.1 nM
- IC50 ([14]; dissociated cells from SMART-H (15 mg/kg, 21 days) treated PC-3 tumors): 30.4 ± 0.5 nM
- IC50 ([14]; dissociated cells from vehicle treated PC-3 tumors, 21 days): 29.1 ± 0.8 nM
- Neurotoxicity in vivo [15]: failed to produce any apparent neurotoxicity
- % T/C ([4]; 20 mg/kg i.p. daily, 20 mg/kg): 28%
- Tumor volume at end of treatment ([4]; 20 mg/kg): 775 ± 107 mm^3
- IC50 [16]: 71 ± 4 nM
- Rotarod performance (time on rotating rod) vs vehicle ([17]; 5 or 15 mg/kg i.p. daily, to day 31): no significant difference; also recorded: did not show significant impairment in motor coordination
- IC50 [18]: 43 ± 5 nM
- IC50 [5]: 55 ± 5 nM
- Inhibition of tubulin polymerization [6]: 90%
- Doses that did not cause greater than 10% loss of body weight [7]: up to 30 mg/kg
- IC50 [8]: 28 ± 5 nM
- IC50 [2, 31]: 35 ± 2 nM
- IC50 [9]: 21 ± 1 nM
- Tumor volume by day 21 [10, 32]: 370 ± 103 mm^3
- Tumor volume by day 21 [10, 33]: 176 ± 112 mm^3
- %T/C values (range) [10]: 4–30%
- IC50 [11]: 28 ± 4 nM
- AUC ([19]; rat, in vivo, iv, 2.5 mg/kg): 5.8 ^a hr * μg/mL
- CL ([19]; rat, in vivo, iv, 2.5 mg/kg): 6 ^a mL/min/kg
- Vss ([19]; rat, in vivo, iv, 2.5 mg/kg): 7.6 ^a L/kg
- t1/2 ([19]; rats, 2.5 mg/kg i.v., ref C. M. Li et al, in press): 1431 ^a min
- Competition with colchicine binding to tubulin [20]: specifically competed with colchicine binding to tubulin
- Competition with paclitaxel binding to tubulin [20]: did not compete
- Competition with vinblastine binding to tubulin [20]: did not compete
- t1/2 [21]: 140 ^a min

SMILES: COc1cc(C(=O)c2csc(-c3ccc(O)cc3)n2)cc(OC)c1OC [SMART-OH]
- IC50 ([22]; read-out: IC50 ± SEM, A375 melanoma, SRB, n = 3): 93 ± 11 nM
- IC50 ([23]; read-out: IC50 ± SEM, PC-3 prostate, SRB, n = 3): 87 ± 5 nM
- IC50 ([24]; read-out: IC50 ± SEM, B16-F1 melanoma, SRB, n = 3): 113 ± 6 nM
- IC50 ([1]; read-out: IC50 ± SEM, PPC-1 prostate, SRB, n = 3): 76 ± 2 nM
- Inhibition of tubulin polymerization [6]: 55%
- IC50 ([25]; read-out: IC50 ± SEM, Du-145 prostate, SRB, n = 3): 116 ± 14 nM
- Concentration inducing apoptosis (cytoplasmic DNA-histone complexes) [26]: ≥ 200 nM
- IC50 [2, 31]: 110 ± 8 nM
- IC50 [27]: 76 to 116 nM
- Potency relative to SMART-H (fold less) ([10]; PC-3 xenograft model, SMART-OH at higher dosage): 10 fold
- Tumor volume at day 21 ([10]; PC-3 xenograft, 50 mg/kg, start 150 mm^3, control 680 ± 198): 331 ± 130 mm^3
- IC50 ([28]; LNCaP prostate, SRB, n = 3): 103 ± 9 nM
- Resistance Factor ([29]; NCI/ADR-RES relative to OVCAR-8): 0.4
- IC50 ([29]; read-out: IC50 ± SEM, NCI/ADR-RES ovarian (P-gp over-expressing), SRB, n = 3): 45 ± 5 nM

SMILES: CC[C@]1(O)C[C@@H]2CN(CCc3c([nH]c4ccccc34)[C@@](C(=O)OC)(c3cc4c(cc3OC)N(C)[C@H]3[C@@](O)(C(=O)OC)[C@H](OC(C)=O)[C@]5(CC)C=CCN6CC[C@]43[C@@H]65)C2)C1 [Vinblastine]
- IC50 ([22]; Homo sapiens, A-375, read-out: IC50 ± SEM): 1.1 ± 0.2 nM
- IC50 ([23]; Homo sapiens, PC-3, read-out: IC50 ± SEM): 2.1 ± 0.2 nM
- IC50 ([24]; Mus musculus, B16-F1, read-out: IC50 ± SEM): 4.7 ± 0.7 nM
- Rotarod performance (time on rotating rod) vs vehicle ([17]; 0.5 mg/kg i.p. daily, to day 31, 0.5 mg/kg): gradually reduced the time (in seconds) that the mice could stay on the rotating rod, and attained significance by days 27 and 31; also recorded: lesser ability to stay on the rotating rod
- Rotarod post-observation after treatment stopped ([17]; 4 weeks after drug treatment was stopped): failed to return to baseline
- IC50 [1, 30]: 1.1 ± 0.4 nM
- IC50 ([25]; Homo sapiens, DU-145, read-out: IC50 ± SEM): 1.8 ± 1.1 nM
- IC50 ([28]; Homo sapiens, LNCaP): 1.1 ± 0.1 nM
